Measurements reported in ChEMBL document CHEMBL1132333, “Synthesis and enantiomeric separation of 2-phthalimidino-glutaric acid analogues: potent inhibitors of tumor metastasis” (1999).

System: Mus musculus
Assay: Compound (0.4 mmol/Kg) was evaluated for its ability to inhibit B16BL6 pulmonary metastasis in mice. The number of lung metastases of treated (T) and nontreated or control (C) is expressed as ratio, T/C.
Assay type: functional

Compound | T/C
CC(CCC(=O)O)(C(=O)O)N1Cc2ccccc2C1=O (configuration not stated) | 0.25
C[C@@](CCC(=O)O)(C(=O)O)N1Cc2ccccc2C1=O | 0.7
O=C(O)CCC(C(=O)O)N1Cc2ccc(O)cc2C1=O (configuration not stated) | 0.9
O=C(O)CCC(C(=O)O)N1Cc2ccccc2C1=O (configuration not stated) | 0.2
O=C(O)CCC(C(=O)O)N1Cc2cccc(O)c2C1=O (configuration not stated) | 0.95
C[C@](CCC(=O)O)(C(=O)O)N1Cc2ccccc2C1=O | 0.15
O=C1CCC(N2C(=O)c3ccccc3C2=O)C(=O)N1 (configuration not stated) [THALIDOMIDE] | 0.9
